The results in this text go back to PubChem BioAssay AID1745844 (Carcinogenic Potency Database (CPDB), 2022).

Molecules are shown by their SMILES. Activity calls are given as the source filed them. No rule for the calls is given here.

In general, TD50 refers to the 50% point of the dose-response relation for the toxic effect studied.

The test system of the data set is rodent lifetime carcinogenesis bioassay, tumor incidence TD50. The experiment in a line: carcinogenic potency in animals, long-term in vivo studies, CPDB compilation (AID 1745844).

`O=C1c2ccccc2C(=O)c2c(O)cccc21`: the TD50 runs as follows: (rat, strain ACI/n, males, in feed, site: cecum, lesion: adenocarcinoma, dosed 68 weeks, study length 68 weeks) 619 mg/kg/day; (rat, strain ACI/n, males, in feed, site: cecum, lesion: adenoma, dosed 68 weeks, study length 68 weeks) 277 mg/kg/day; (rat, strain ACI/n, males, in feed, site: colon, lesion: adenocarcinoma, dosed 68 weeks, study length 68 weeks) 246 mg/kg/day; (rat, strain ACI/n, males, in feed, site: colon, lesion: adenoma, dosed 68 weeks, study length 68 weeks) 219 mg/kg/day; (rat, strain ACI/n, males, in feed, site: forestomach, lesion: papilloma, dosed 68 weeks, study length 68 weeks) 789 mg/kg/day; (rat, strain ACI/n, males, in feed, site: large intestine, lesion: several types, types named in the paper, dosed 68 weeks, study length 68 weeks) 59.2 mg/kg/day. Also, the TD50 by setting is: (rat, strain ACI/n, males, in feed, site: liver, lesion: hepatocellular carcinoma, dosed 68 weeks, study length 68 weeks) 789 mg/kg/day; (rat, strain ACI/n, males, in feed, site: liver, lesion: neoplastic nodule, dosed 68 weeks, study length 68 weeks) 219 mg/kg/day; (rat, strain ACI/n, males, in feed, site: liver, lesion: several types, types named in the paper, dosed 68 weeks, study length 68 weeks) 219 mg/kg/day; (rat, strain ACI/n, males, in feed, site: stomach, glandular, lesion: adenoma, dosed 68 weeks, study length 68 weeks) 3340 mg/kg/day; (rat, strain ACI/n, males, in feed, site: stomach, lesion: several types, types named in the paper, dosed 68 weeks, study length 68 weeks) 619 mg/kg/day; (rat, strain Fischer 344, males, in feed, site: cecum, lesion: adenocarcinoma, dosed 78 weeks, study length 78 weeks) 432 mg/kg/day. The TD50 was 432 mg/kg/day (rat, strain Fischer 344, males, in feed, site: colon, lesion: adenocarcinoma, dosed 78 weeks, study length 78 weeks); 432 mg/kg/day (rat, strain Fischer 344, males, in feed, site: colon, lesion: several types, types named in the paper, dosed 78 weeks, study length 78 weeks); 222 mg/kg/day (rat, strain Fischer 344, males, in feed, site: large intestine, lesion: several types, types named in the paper, dosed 78 weeks, study length 78 weeks).
For `C[C@H]1CCCCN1N=O`, the TD50 runs as follows: (rat, strain Sprague-Dawley, both sexes, in drinking water, site: any site (literature study), lesion: malignant tumor, dosed 104 weeks, study length 104 weeks) 13.2 mg/kg/day; (rat, strain Sprague-Dawley, both sexes, in drinking water, site: liver, lesion: liver-cell carcinoma, dosed 104 weeks, study length 104 weeks) 61.2 mg/kg/day; (rat, strain Sprague-Dawley, both sexes, in drinking water, site: liver, lesion: several types, types named in the paper, dosed 104 weeks, study length 104 weeks) 49.4 mg/kg/day; (rat, strain Sprague-Dawley, both sexes, in drinking water, site: several sites, sites named in the paper, lesion: ependymoblastoma, dosed 104 weeks, study length 104 weeks) 34.5 mg/kg/day.
Take `O=C(OOC(=O)c1ccccc1)c1ccccc1`: the carcinogen call is “negative (inactive)” (mouse, strain albino, both sexes, in feed, site: liver, lesion: hepatoma, dosed 80 weeks, study length 80 weeks); “negative (inactive)” (mouse, strain albino, both sexes, in feed, site: lung, lesion: adenoma, dosed 80 weeks, study length 80 weeks); “negative (inactive)” (rat, strain albino, both sexes, in feed, site: liver, lesion: malignant hepatoma, dosed 120 weeks, study length 120 weeks). Further, the TD50 runs as follows: (rat, strain albino, both sexes, in feed, site: any site (literature study), lesion: benign tumor, dosed 120 weeks, study length 120 weeks) 6480 mg/kg/day (inactive); (rat, strain albino, both sexes, in feed, site: any site (literature study), lesion: malignant tumor, dosed 120 weeks, study length 120 weeks) 15600 mg/kg/day (inactive).
For the molecule `CN(C)c1ccc(N=Nc2ccccc2)cc1`, the TD50 is 17.2 mg/kg/day (monkey, strain Rhesus [Macaca mulatta], both sexes, in feed, site: any site (literature study), lesion: malignant tumor, dosed 258 weeks, study length 1019 weeks); 4.84 mg/kg/day (monkey, strain Rhesus [Macaca mulatta], both sexes, in feed, site: lung, lesion: alveolar/bronchiolar carcinoma, dosed 258 weeks, study length 1019 weeks); 4.9 mg/kg/day (rat, strain Wistar albino, females, in feed, site: liver, lesion: bile duct tumor, dosed 33 weeks, study length 56 weeks); 3.31 mg/kg/day (rat, strain Wistar albino, females, in feed, site: liver, lesion: hepatoma, dosed 33 weeks, study length 56 weeks); 7.42 mg/kg/day (rat, strain Wistar albino, females, in feed, site: liver, lesion: liver-cell carcinoma, dosed 33 weeks, study length 56 weeks).
On to `CC[C@]1(O)C[C@@H]2CN(CCc3c([nH]c4ccccc34)[C@@](C(=O)OC)(c3cc4c(cc3OC)N(C)[C@H]3[C@@](O)(C(=O)OC)[C@H](OC(C)=O)[C@]5(CC)C=CCN6CC[C@]43[C@@H]65)C2)C1`, for which, under “rat, strain BR 46, males, i.v., site: any site (literature study), lesion: several types, types named in the paper, dosed 52 weeks, study length 104 weeks”, the carcinogen call was “negative (inactive)”.
For the molecule `NC(=O)c1cccnc1`, the carcinogen call runs as follows: (mouse, strain Swiss albino, females, in drinking water, site: lung, lesion: several types, types named in the paper, dosed 113 weeks, study length 113 weeks) “negative (inactive)”; (mouse, strain Swiss albino, males, in drinking water, site: lung, lesion: several types, types named in the paper, dosed 109 weeks, study length 109 weeks) “negative (inactive)”.
